Values of other authors as cited in US10232044B2, “Controlled release aural pressure modulator compositions and methods for the treatment of OTIC disorders” (Otonomy, Inc., priority 2008, dated 2019).
Where two headings read alike, the source gives them in different places.

Tests used:
8-isoprostaglandin F2α = details: sensorineural hearing loss animal models, noise exposure
intra-ocular pressure = details: glaucoma patients
[1] = molecular target: constitutively activated D136A mutant VP2 receptor (Homo sapiens, UniProt P30518, D136A)

| Compound | intra-ocular pressure (intra-ocular pressure) | also measured |
| --- | --- | --- |
| O=C(O)CCC/C=C\C[C@@H]1[C@H](CNNC(=O)Nc2ccccc2)[C@H]2CC[C@@H]1O2 [SQ29548] |  | noise-induced changes in cochlear blood flow and vascular conductance (8-isoprostaglandin F2α): prevents these noise-induced changes |
| CC(C)OC(=O)CCC/C=C\C[C@@H]1[C@@H](/C=C/[C@@H](O)COc2cccc(C(F)(F)F)c2)[C@H](O)C[C@@H]1O [travoprost] | reduce intra-ocular pressure |  |
| NC(=O)CC[C@@H]1NC(=O)[C@H](Cc2ccccc2)NC(=O)[C@H](Cc2ccc(O)cc2)NC(=O)[C@@H](N)CSSC[C@@H](C(=O)N2CCC[C@H]2C(=O)N[C@@H](CCCN=C(N)N)C(=O)NCC(N)=O)NC(=O)[C@H](CC(N)=O)NC1=O [VP] |  | endolymphatic hydrops (endolymphatic hydrops; chronic administration, guinea pigs): induces endolymphatic hydrops; endolymphatic hydrops (endolymphatic hydrops; systemic administration, guinea pig): development of endolymphatic hydrops |
| CCOc1ccc2c(c1)C1(CCC(OCCN3CCOCC3)CC1)C(=O)N2S(=O)(=O)c1ccc(C(=O)NC(C)(C)C)cc1OC (stereo not drawn) [SR-1211463] |  | behaviour at D136A mutant VP2 receptor [1]: inverse agonist |
| CCCCCCCC(=O)CC[C@@H]1[C@@H](C/C=C\CCCC(=O)O)[C@@H](O)C[C@H]1O [unoprostone] | reduce intra-ocular pressure |  |
| CC(C)OC(=O)CCC/C=C\C[C@@H]1[C@@H](CC[C@@H](O)CCc2ccccc2)[C@H](O)C[C@@H]1O [latanoprost] | reduce intra-ocular pressure |  |
| CCCCC[C@H](O)/C=C/[C@@H]1[C@@H](C/C=C\CCCC(=O)O)[C@@H](O)C[C@H]1O [minprostin F2 alpha] | reduce intra-ocular pressure |  |
| CCNC(=O)CCC/C=C\C[C@@H]1[C@@H](/C=C/[C@@H](O)CCc2ccccc2)[C@H](O)C[C@@H]1O [bimtoprost] | reduce intra-ocular pressure |  |
